Key:
Type in all cases: in vivo
[1] = test system: JeKo-1 cells; assay: JeKo-1 MCL xenograft mouse model, tumor growth inhibition; details: single agent, day 21
Method: JeKo-1 cells are of mantle cell lymphoma (MCL) origin. These cells were cultured in RPMI1640 complete medium supplemented with 10% (v/v) fetal bovine serum, and 100 μg/mL of penicillin and streptomycin. NOD/SCID mice were pre-treated with cyclophosphamide (prepared in saline, 100 mg/kg, i.p.) and disulfiram (prepared in 0.8% Tween-80 in saline, 125 mg/kg, p.o., two hours after each dose of cyclophosphamide) once daily for two days.
On the day of implantation, aggregated cells were dispersed. Four hours later, the media was removed, and the cells were collected and re-suspended in cold (4° C.) DPBS with a final concentration of 1×10^8 cells/mL. Re-suspended cells were placed on ice prior to inoculation. The right flank region of each mouse was cleaned with 75% ethanol prior to cell inoculation. Animals were then co-injected subcutaneously with 1×10^7 JeKo-1 cells in 100 μL of cell suspension in the right front flank via a 26-gauge needle.
Animals were randomly divided into six groups with 10 mice per group. The groups consisted of vehicle group (0.5% (w/v) methylcellulose solution), 7.5 mg/kg BTK-1 (dissolved in 0.5% (w/v) methylcellulose solution), 12 mg/kg Compound 2 (dissolved in 0.5% (w/v) methylcellulose solution), 36 mg/kg Compound 2 (dissolved in 0.5% (w/v) methylcellulose solution), and the combination of Compound 2/BTK-1 (12 mg/kg Compound 2 and 7.5 mg/kg BTK-1), or (36 mg/kg Compound 2 and 7.5 mg/kg BTK-1), see Table 1. […]
Both compounds were administered by oral gavage (p.o.) twice daily (BID). After implantation, primary tumor volume was measured in two dimensions using a caliper.
(§1) Individual body weight was recorded twice weekly, with mice being monitored daily for clinical signs of toxicity for the duration of the study. […]
(§2) Tumor volume was calculated using the formula: V=0.5×(a×b^2) where a and b are the long and short diameters of the tumor, respectively. Tumor growth inhibition (TGI) was calculated using the following formula: % TGI=100×[1−(treatedt/vehiclet)](treatedt=treated tumor volume at time t) and (vehiclet=vehicle tumor volume at time t)

[2] = test system: MINO cells; assay: MINO MCL xenograft mouse model, tumor growth inhibition; details: single agent, day 24
Method: MINO cells are of MCL origin. The MINO cells were cultured in RPMI1640 complete medium supplemented with 10% (v/v) fetal bovine serum, and 100 μg/mL of penicillin and streptomycin. On the day of implantation, aggregated cells were dispersed. Four hours later, media was removed, and the cells were collected as described above. Cells were re-suspended in cold (4° C.) PBS with a final concentration of 1×10^8 cells/mL. Re-suspended cells were placed on ice prior to inoculation. The right flank region of each mouse (NOD/SCID) was cleaned with 75% ethanol prior to cell inoculation. Animals were then injected subcutaneously with 1×10^7 MINO cells in 100 μl of cell suspension in the right front flank via a 26-gauge needle.
On day 1 after inoculation, animals were randomly divided into 6 groups with 10 mice per group according to the inoculation order. The groups consisted of vehicle group (0.5% (w/v) methylcellulose solution), 7.5 mg/kg BTK-1 (dissolved in 0.5% (w/v) methylcellulose solution), 12 mg/kg Compound 2 (dissolved in 0.5% (w/v) methylcellulose solution), 36 mg/kg Compound 2 (dissolved in 0.5% (w/v) methylcellulose solution) and the combination of Compound 2/BTK-1 (12 mg/kg Compound 2 and 7.5 mg/kg BTK-1), or (36 mg/kg Compound 2 and 7.5 mg/kg BTK-1), see Table 2. The compounds were administered by oral gavage (p.o.) twice daily (BID). After implantation, primary tumor volume was measured in two dimensions using a caliper. Compound 2 was (S)-3-(1-(8-amino-1-methylimidazo[1,5-a]pyrazin-3-yl)ethyl)-5-chloro-6-fluoro-2-isopropoxy-N-(2-(4-methylpiperazin-1-yl)ethyl)benzamide fumarate.
(§3) Mice were euthanized using carbon dioxide when their tumor volume reached 2,000 mm^3 after twice measurements, the tumor was ulcerated, or body weight loss exceeded 20%.
as §2

[3] = test system: TMD8 cells; assay: TMD8 DLBCL xenograft mouse model, tumor growth inhibition; details: single agent, day 14
Method: TMD8 cells are of DLBCL origin. TMD8 cells were cultured in RPMI1640 complete medium supplemented with 10% (v/v) fetal bovine serum, and 100 μg/mL of penicillin and streptomycin. On the day of implantation, aggregated cells were dispersed. Four hours later, media was removed, and the cells were collected as described above. Cells were re-suspended in cold (4° C.) PBS and same volume of matrigel was added to give a final concentration of 5×10^7 cells/mL for TMD8. Re-suspended cells were placed on ice prior to inoculation. The right flank region of each mouse (NOD/SCID) was cleaned with 75% ethanol prior to cell inoculation. Animals were then injected subcutaneously with 1×10^7 TMD8 cells in 200 μl of cell suspension in the right front flank via a 26-gauge needle.
On day 15 after inoculation, animals were randomly divided into 8 groups with 10 mice per group according to the tumor volume. The groups consisted of vehicle group (0.5% (w/v) methylcellulose solution), 2.5 mg/kg BTK-1 (dissolved in 0.5% (w/v) methylcellulose solution), 10 mg/kg Compound 1 (dissolved in 0.5% (w/v) methylcellulose solution), 30 mg/kg Compound 1 (dissolved in 0.5% (w/v) methylcellulose solution), 100 mg/kg Compound 1 (dissolved in 0.5% (w/v) methylcellulose solution) and the combination of Compound 1/BTK-1 (10 mg/kg Compound 1 and 2.5 mg/kg BTK-1), (30 mg/kg Compound 1 and 2.5 mg/kg BTK-1), or (100 mg/kg Compound 1 and 2.5 mg/kg BTK-1), see Table 3. BTK-1 and Compound 1 were administered by oral gavage (p.o.) twice daily (BID). After implantation, primary tumor volume was measured in two dimensions using a caliper. Compound 1 was (S)-3-(1-(8-amino-1-methylimidazo[1,5-a] pyrazin-3-yl)ethyl)-5-chloro-6-fluoro-2-isopropoxy-N-(2-(4-methylpiperazin-1-yl)ethyl)benzamide.
as §3, with “Individual body weight was recorded twice weekly, with mice being monitored daily for clinical signs of toxicity for the duration of the study. Mice” for “Mice”
(§4) Tumor volume was calculated using the formula: V=0.5×(a×b^2) where a and b are the long and short diameters of the tumor, respectively. Tumor growth inhibition (TGI) was calculated using the formula in the above examples.

[4] = test system: Farage cells; assay: Farage DLBCL xenograft mouse model, tumor growth inhibition; details: single agent, day 25
Method: Farage cells are of DLBCL origin. Farage cells were cultured in RPMI1640 complete medium supplemented with 10% (v/v) fetal bovine serum, and 100 μg/mL of penicillin and streptomycin. On the day of implantation, aggregated cells were dispersed. Four hours later, media was removed and the cells were collected as described above. Cells were re-suspended in cold (4° C.) PBS and same volume of matrigel was added to give a final concentration of 1.5×10^7 cells/mL for Farage. Re-suspended cells were placed on ice prior to inoculation. The right flank region of each mouse (NCG) was cleaned with 75% ethanol prior to cell inoculation. Animals were then injected subcutaneously with 3×10^6 Farage cells in 100 μl of cell suspension in the right front flank via a 26-gauge needle.
The animals were randomly divided into 6 groups with 10 mice per group. The groups consisted of vehicle group (0.5% (w/v) methylcellulose solution), 7.5 mg/kg BTK-1 (dissolved in 0.5% (w/v) methylcellulose solution), 12 mg/kg Compound 2 (dissolved in 0.5% (w/v) methylcellulose solution), 36 mg/kg Compound 2 (dissolved in 0.5% (w/v) methylcellulose solution), and the combination of Compound 2 and BTK-1 (12 mg/kg and 7.5 mg/kg, respectively), or (36 mg/kg and 7.5 mg/kg, respectively), see Table 4. BTK-1 and Compound 2 were administered as a combination by oral gavage (p.o.) twice daily (BID). After implantation, primary tumor volume was measured in two dimensions using a caliper. Compound 2 was (S)-3-(1-(8-amino-1-methylimidazo [1,5-a] pyrazin-3-yl) ethyl)-5-chloro-6-fluoro-2-isopropoxy-N-(2-(4-methylpiperazin-1-yl) ethyl) benzamide fumarate.
as §1, §4

[5] = Bioavailability of salts of Compound 1; details: among different salts of Compound 1

## C=CC(=O)N1CCC([C@@H]2CCNc3c(C(N)=O)c(-c4ccc(Oc5ccccc5)cc4)nn32)CC1 [BTK-1, (S)-7-(1-acryloylpiperidin-4-yl)-2-(4-phenoxyphenyl)-4,5,6,7-tetra-hydropyrazolo[1,5-a]pyrimidine-3-carboxamide]
[1]; 7.5 mg/kg p.o. BID
  % TGI: 43%
[2]; 7.5 mg/kg p.o. BID
  % TGI: 22%
[3]; 2.5 mg/kg p.o. BID
  % TGI: 68%
[4]; 7.5 mg/kg p.o. BID
  % TGI: 43%

## Cc1nc([C@@H](C)c2cc(Cl)c(F)c(C(=O)NCCN3CCN(C)CC3)c2OC(C)C)n2ccnc(N)c12 [Compound 1, (S)-3-(1-(8-amino-1-methylimidazo[1,5-a]pyrazin-3-yl)ethyl)-5-chloro-6-fluoro-2-isopropoxy-N-(2-(4-methylpiperazin-1-yl)ethyl)benzamide]
[3]; 10 mg/kg p.o. BID
  % TGI: 27%
[3]; 30 mg/kg p.o. BID
  % TGI: 26%
[3]; 100 mg/kg p.o. BID
  % TGI: 43%

## Cc1nc([C@@H](C)c2cc(Cl)c(F)c(C(=O)NCCN3CCN(C)CC3)c2OC(C)C)n2ccnc(N)c12.O=C(O)/C=C/C(=O)O [Compound 2, (S)-3-(1-(8-amino-1-methylimidazo[1,5-a]pyrazin-3-yl)ethyl)-5-chloro-6-fluoro-2-isopropoxy-N-(2-(4-methylpiperazin-1-yl)ethyl)benzamide fumarate]
[1]; 12 mg/kg p.o. BID
  % TGI: 59%
[1]; 36 mg/kg p.o. BID
  % TGI: 62%
[2]; 12 mg/kg p.o. BID
  % TGI: 26%
[2]; 36 mg/kg p.o. BID
  % TGI: 36%
[4]; 12 mg/kg p.o. BID
  % TGI: 40%
[4]; 36 mg/kg p.o. BID
  % TGI: 52%
[5]
  bioavailability: high bioavailability
